Assay results from patent publication US10759810B2 (AO “TATKHIMFARMPREPARATY”, priority 2016, dated 2020).
Converted amounts (≈) assume the structure as drawn.

Legend:
[1] = tested on: gram-positive microorganisms; assay: Antibacterial activity (MIC), gram-positive strains; assay type: cell-based; details: in words, versus comparison drugs
Protocol: (§1) Measurement of antibacterial activity was carried out on the strains of Staphylococcus aureus ATCC 29213 (museum strain), Staphylococcus epidermidis (clinical isolate), Micrococcus luteus (clinical isolate), Bacillus subtilis 168 (museum strain), Escherichia coli ATCC 25922 (museum strain), Salmonella typhimurium TA100 (museum strain), Pseudomonas aeruginosa ATCC 27853 (museum strain). A comparative assessment of the spectrum of antibacterial action on reference strains and clinical isolates of gram-positive microorganisms was carried out using a micromethod for determining the minimum inhibitory concentration (MIC) using serial dilutions in Mueller-Hinton broth using 96-well sterile plates.
(§2) The first lowest concentration of the antibiotic (from a series of successive dilutions), where bacterial growth is not visually determined, is considered to be the minimum inhibitory concentration (MIC).
(§3) For the preparation of inoculum (infectious material used for artificial contamination), intended for the study of antibacterial activity, was used a pure daily culture of bacteria grown on a dense nutrient medium (agar LB medium). […] The inoculum was used for 15 minutes after preparation; the purity of the bacterial strains was monitored before each experiment. […]

S. aureus MRSA 1168 = assay: MIC on clinical strain; assay type: cell-based, Staphylococcus aureus; details: inoculum 10^7 CFU/ml
Protocol: as §1, §2
(§4) For the preparation of inoculum (infectious material used for artificial contamination), intended for the study of antibacterial activity, was used a pure daily culture of bacteria grown on a dense nutrient medium (agar LB medium). In a sterile isotonic solution of sodium chloride, a suspension of microorganisms was prepared, adjusting the inoculum density to 0.5 according to the McFarland standard (1.5·10^8 CFU/ml). Then, the resulting inoculum was diluted to a concentration of 10^7 CFU/ml with LB-broth. The inoculum was used for 15 minutes after preparation; the purity of the bacterial strains was monitored before each experiment.
(§5) 100 μl of Muller-Hinton broth was added to the wells of each plate; the test base was introduced into the first well at a concentration of 128 μg/ml in a volume of 100 μl and its concentration was adjusted to 0.25 μg/ml by consecutive two-fold dilution. […] Each preparation in the experiment was titrated three times. […] In addition, the purity of nutrient media and solvents was monitored. The plates were incubated in a thermostat at […] for 24 hours.
(§6) The growth of cultures was assessed visually, comparing the growth of microorganisms in the presence of test compounds with the growth of culture without them.

S. aureus MRSA 1131 = assay: MIC on clinical strain; assay type: cell-based, Staphylococcus aureus; details: inoculum 10^7 CFU/ml
Protocol: as §1, §2, §4, §5, §6

S. aureus MRSA 1053 = assay: MIC on clinical strain; assay type: cell-based, Staphylococcus aureus; details: inoculum 10^7 CFU/ml
Protocol: as §1, §2, §4, §5, §6

S. aureus MRSA 981 = assay: MIC on clinical strain; assay type: cell-based, Staphylococcus aureus; details: inoculum 10^7 CFU/ml
Protocol: as §1, §2, §4, §5, §6

S. aureus MRSA 1173 = assay: MIC on clinical strain; assay type: cell-based, Staphylococcus aureus; details: inoculum 10^7 CFU/ml
Protocol: as §1, §2, §4, §5, §6

S. aureus MRSA 1143 = assay: MIC on clinical strain; assay type: cell-based, Staphylococcus aureus; details: inoculum 10^7 CFU/ml
Protocol: as §1, §2, §4, §5, §6

S. aureus MRSA 1065 = assay: MIC on clinical strain; assay type: cell-based, Staphylococcus aureus; details: inoculum 10^7 CFU/ml
Protocol: as §1, §2, §4, §5, §6

S. aureus MRSA 1130 = assay: MIC on clinical strain; assay type: cell-based, Staphylococcus aureus; details: inoculum 10^7 CFU/ml
Protocol: as §1, §2, §4, §5, §6

S. aureus MRSA 1163 = assay: MIC on clinical strain; assay type: cell-based, Staphylococcus aureus; details: inoculum 10^7 CFU/ml
Protocol: as §1, §2, §4, §5, §6

S. aureus MRSA 2020 = assay: MIC on clinical strain; assay type: cell-based, Staphylococcus aureus; details: inoculum 10^7 CFU/ml
Protocol: as §1, §2, §4, §5, §6

S. aureus MRSA 983 = assay: MIC on clinical strain; assay type: cell-based, Staphylococcus aureus; details: inoculum 10^7 CFU/ml
Protocol: as §1, §2, §4, §5, §6

S. aureus MRSA 967 = assay: MIC on clinical strain; assay type: cell-based, Staphylococcus aureus; details: inoculum 10^7 CFU/ml
Protocol: as §1, §2, §4, §5, §6

[2] = tested on: gram-negative bacterial strains; assay: Antibacterial activity (MIC), gram-negative strains; assay type: cell-based; details: in words
Protocol: as §1, §2, §3

[3] = tested on: clinical freshly isolated strains of Staphylococcus aureus MRSA; assay: Antibacterial activity (MIC), clinical MRSA strains overall; assay type: cell-based; details: in words, in almost all cases
Protocol: as §1, §2, §3

[4] = tested on: microorganism strains under study; assay: Antibacterial activity (MIC), whole strain panel; assay type: cell-based; details: in words, from Table 1
Protocol: as §1, §2, §3

ICR mice (CD-1) = assay: General acute toxicity, fixed-dose method, intragastric administration; assay type: in vivo, mouse; details: for Number of animals in the group/number of dead animals / LD10 / LD16 / LD50 with confidence interval / LD84: mouse
Protocol: The acute toxicity of compound I-2 was studied using the fixed-dose method in ICR mice (CD-1) (6-8 weeks, 20-25 g) of both sexes, 6 animals per group. The starting dose for testing compound I-2 was 5000 mg/kg. The intragastric (oral) administration of compound I-2 to animals (<2.5 ml/100 g) using a gastric probe was used.

[5] = tested on: Micrococcus luteus (clinical isolate); assay: MIC, serial dilutions in Mueller-Hinton broth; assay type: cell-based; details: inoculum 10^7 CFU/ml; gram-positive
Protocol: as §1, §2, §4, §5, §6

[6] = tested on: Escherichia coli ATCC 25922 (museum strain); assay: MIC, serial dilutions in Mueller-Hinton broth; assay type: cell-based; details: inoculum 10^7 CFU/ml; gram-negative
Protocol: as §1, §2, §4, §5, §6

[7] = tested on: Staphylococcus aureus ATCC 29213 (museum strain); assay: MIC, serial dilutions in Mueller-Hinton broth; assay type: cell-based; details: inoculum 10^7 CFU/ml; gram-positive
Protocol: as §1, §2, §4, §5, §6

[8] = tested on: Salmonella typhimurium TA100 (museum strain); assay: MIC, serial dilutions in Mueller-Hinton broth; assay type: cell-based; details: inoculum 10^7 CFU/ml; gram-negative
Protocol: as §1, §2, §4, §5, §6

[9] = tested on: Bacillus subtilis 168 (museum strain); assay: MIC, serial dilutions in Mueller-Hinton broth; assay type: cell-based; details: inoculum 10^7 CFU/ml; gram-positive
Protocol: as §1, §2, §4, §5, §6

[10] = tested on: Pseudomonas aeruginosa ATCC 27853 (museum strain); assay: MIC, serial dilutions in Mueller-Hinton broth; assay type: cell-based; details: inoculum 10^7 CFU/ml; gram-negative
Protocol: as §1, §2, §4, §5, §6

[11] = tested on: Staphylococcus epidermidis (clinical isolate); assay: MIC, serial dilutions in Mueller-Hinton broth; assay type: cell-based; details: inoculum 10^7 CFU/ml; gram-positive
Protocol: as §1, §2, §4, §5, §6

Cc1ncc(CN2CCN(c3cc4c(cc3F)c(=O)c(C(=O)O)cn4C3CC3)CC2)c(CO)c1O [Compound I-2, 1-cyclopropyl-6-fluoro-7-(4-((5-hydroxy-4-hydroxymethyl-6-methylpyridine-3-yl)methyl)piperazinyl)-4-oxo-1,4-dihydroquinolin-3-carboxylic acid]
antibacterial action with respect to gram-positive microorganisms [1]: comparable with the comparison drugs
The value of the MIC, S. aureus MRSA 1168 (S. aureus MRSA 1168): 0.25 µg/mL
The value of the MIC, S. aureus MRSA 1131 (S. aureus MRSA 1131): 16 µg/mL
The value of the MIC, S. aureus MRSA 1053 (S. aureus MRSA 1053): 16 µg/mL
The value of the MIC, S. aureus MRSA 981 (S. aureus MRSA 981): 16 µg/mL
The value of the MIC, S. aureus MRSA 1173 (S. aureus MRSA 1173): 16 µg/mL
The value of the MIC, S. aureus MRSA 1143 (S. aureus MRSA 1143): 32 µg/mL
The value of the MIC, S. aureus MRSA 1065 (S. aureus MRSA 1065): 32 µg/mL
The value of the MIC, S. aureus MRSA 1130 (S. aureus MRSA 1130): 16 µg/mL
The value of the MIC, S. aureus MRSA 1163 (S. aureus MRSA 1163): 0.5 µg/mL
The value of the MIC, S. aureus MRSA 2020 (S. aureus MRSA 2020): 0.25 µg/mL
The value of the MIC, S. aureus MRSA 983 (S. aureus MRSA 983): 8 µg/mL
The value of the MIC, S. aureus MRSA 967 (S. aureus MRSA 967): 16 µg/mL
antibacterial activity in relation to gram-negative bacterial strains [2]: low antibacterial activity
MIC on clinical MRSA strains compared with ceftriaxone [3]: superior to ceftriaxone
antibacterial activity against the microorganism strains under study [4]: most active
changes during the autopsy of mice (ICR mice (CD-1); end of experiment, pathomorphological dissection): No changes were observed
hazard class (ICR mice (CD-1); from acute toxicity in mice): 4
behaviour after dosing (ICR mice (CD-1); mice of both sexes, 5000 mg/kg intragastric): slight inhibition of activity
death of animals (mortality) (ICR mice (CD-1); mice of both sexes, 5000 mg/kg intragastric, whole experiment): not observed
abnormalities during the observation period (ICR mice (CD-1); mice, 5000 mg/kg intragastric): no abnormalities were observed
time until animals began to take food and water (ICR mice (CD-1); mice, 5000 mg/kg intragastric): 1.5 to 2 h
time until behavior of animals returned to normal (ICR mice (CD-1); mice, 5000 mg/kg intragastric): 20 to 30 min
mean lethal dose (ICR mice (CD-1); mice, intragastric, up to 5000 mg/kg): not detected
Number of animals in the group/number of dead animals (ICR mice (CD-1); females, 5000 mg/kg intragastric): 6/0
LD10 (ICR mice (CD-1); females, intragastric): >5000 mg/kg
LD16 (ICR mice (CD-1); females, intragastric): >5000 mg/kg
LD50 with confidence interval (ICR mice (CD-1); females, intragastric): >5000 mg/kg
LD84 (ICR mice (CD-1); females, intragastric): >5000 mg/kg
Number of animals in the group/number of dead animals (ICR mice (CD-1); males, 5000 mg/kg intragastric): 6/0
LD10 (ICR mice (CD-1); males, intragastric): >5000 mg/kg
LD16 (ICR mice (CD-1); males, intragastric): >5000 mg/kg
LD50 with confidence interval (ICR mice (CD-1); males, intragastric): >5000 mg/kg
LD84 (ICR mice (CD-1); males, intragastric): >5000 mg/kg
MIC, M. luteus [5]: 4 µg/mL (≈ 8.29 µM)
MIC, E. coli [6]: 2 µg/mL (≈ 4.14 µM)
MIC, S. aureus [7]: 2 µg/mL (≈ 4.14 µM)
MIC, S. typhimurium [8]: 2 µg/mL (≈ 4.14 µM)
MIC, B. subtilis [9]: <2 µg/mL
MIC, P. aerugenosa [10]: >64 µg/mL
MIC, S. epidermidis [11]: 2 µg/mL (≈ 4.14 µM)
